One molecule from paper PMC4924691, “Inhibition of the p53/hDM2 protein-protein interaction by cyclometallated iridium(III) compounds” (Oncotarget, 2016) can be followed below.

Structures are written as SMILES.

In series [1] the target is T1, p53/hDM2 interaction (Homo sapiens, UniProt Q00987).
T1 construct: Expression of hDM2_17–126 recombinant fragment was performed as described previously; made in house
Briefly: Fluorescence anisotropy (FA) assay, displacement of p53_15–31Flu from hDM2_17–126. The class given is binding. As to the method: To experimentally test the library of the organo-metallic iridium(III) compounds as p53/hDM2 PPI inhibitors, a fluorescence anisotropy (FA) assay was performed as previously described. hDM2_17–126 (recombinant fragment) was incubated with fluorescein-labelled p53 peptide (p53_15–31Flu) and serial dilutions of the organometallic iridium(III) compounds.
Figure 2 FA titration data of 1 1 was incubated with 150 nM hDM2_17–126 recombinant fragment and 50 nM fluorescein-labelled p53 peptide (p53_15–31Flu), and fluorescence anisotropy was measured at 480ex/535em.
Expression of hDM2_17–126 recombinant fragment was performed as described previously. Fluorescence anisotropy assays were used to study the displacement of p53 from hDM2 by organometallic compounds. The experiments were performed in triplicate in a volume of 60 μL of the assay buffer (40 mM Na3PO4, pH 7.50, 200 mM NaCl, 0.02 mg/mL BSA) in black flat-bottom 384-well plates. Different concentrations of organometallic compounds were diluted in the assay buffer containing 150 nM hDM2 and 50 nM p53_15–31Flu (Ac-[…](Flu)-NH2, Peptide Protein Research Ltd.) and incubated at room temperature for 30 min. The intensity and anisotropy was monitored at 480ex/535em ([…] bandwidth) using a Perkin Elmer EnvisionTM 2103 MultiLabel plate reader. The data was analyzed according to published methods.
A general note: Polarisation of emitted light reports the rotation of a fluorescent probe.

For series [2], the system named is T2, p53/hDM2 interaction.
T2 construct: host or cells: A375 cells
Nature of the series: Pull-down assay of p53-Flag/hDM2-myc in A375 cells. It is filed as cell-based, human. The note with it: 6 h of treatment. As to the method: A pull-down assay was conducted to further examine the effect of 1 on the p53/hDM2 interaction. A375 cells were co-transfected with cDNAs encoding p53-Flag and hDM2-myc fusion proteins. After 6 h of treatment with NVP-CGM097 or 1, p53/hDM2 complexes were immunoprecipitated using anti-Flag magnetic beads and analysed by immunoblotting.
A375 cells seeded in 6-well plates were co-transfected with pcDNA-Flag-p53 (Addgene) and pCMV-myc3-hDM2 (Addgene) for 6 h using TurboFect transfection reagent following the instruction from manufacturer. Cells were then cultured in Dulbecco's Modified Eagle's Medium (DMEM) complete medium overnight. Serial dilutions of organometallic compounds in low FBS buffer were placed into the wells, and incubated with cells for additional 6 h. Protein samples were collected, and the concentration in the supernatant was determined with the bicinchoninic acid (BCA) method. The […] of p53/hDM2 in the protein samples were pulled down using anti-Flag magnetic beads to capture the FLAG fusion proteins (Sigma) as previously described. The protein-binding beads were washed three time with TBS buffer (50 mM Tris HCl, 150 mM NaCl, pH 7.4) to remove non-specifically bound proteins, and subsequently subjected to the sodium dodecyl sulfate-polyacrylamide gel electrophoresis (SDS-PAGE) by detection with anti-Flag (1:1000, Sigma-Aldrich) and anti-myc antibodies (1:1000, Beyotime).

The next series has as its system GADD45α, PUMA, p21. The note with it: A375 cells. As to the method:
(§1) Transactivation of p53 restricts cellular proliferation by inducing apoptosis and cycle arrest. Therefore, a terminal deoxynucleotidyl transferase (TdT)-mediated dUTP nick and labelling (TUNEL) and Hoechst staining assay were then performed to investigate DNA fragmentation, a hallmark of apoptosis, in apoptotic cells. […] Finally, the effect of 1 on caspase-3/7, an apoptotic executioner under the control of p53, was investigated in A375 cells using a homogeneous luminescence assay.
A375 cells seeded in 6-well plates were treated with vehicle, NVP-CGM097 or different concentrations of 1 for 6 h. Cells were then harvested and the quantity of each protein samples was measured by the BCA method. Same aliquot (30 μg) of each protein sample was separated by SDS-PAGE according to the reported procedure of immunoblotting. The signals were visualized using Enhanced chemiluminescent Plus reagents (GE Healthcare) and analyzed by Image Lab. The primary antibodies used were: anti-PUMA (1:500, Santa Cruz), anti-GADD45α (1:500, Santa Cruz), anti-p21 (1:500, Santa Cruz), anti-GAPDH (1:500, Santa Cruz), anti-p53 (1:500, Santa Cruz) and anti-hDM2 antibodies (1:500, Santa Cruz).

The test system of another series is A375 cells. As to conditions: 0.3 μM, 6 h. As to the method:
as §1

In the next series the test system is caspase-3/7. As to conditions: A375 cells, 6 h, dose-dependent. On the procedure:
as §1

A further series has as its system A2780. The note with it: read-out: IC50 (MTT), A2780; human ovarian carcinoma, p53 wt, 72 h. As to the method: (§2) The cytotoxicity of 1 towards ten cancers cell lines with different p53 statuses (wt, mut or null) was subsequently examined assessed using the MTT assay (Supplementary Table S2).
(§3) Inhibition of cell growth was measured using the MTT reagent (3-(4, 5-dimethylthiazol-2-yl)-2, 5-diphenyltetrazolium bromide). Different cell lines with variable expression levels of p53 protein (A375, A549, HeLa, A2780, A431, MCF7, MD-MBA-231, MD-MBA-468, T47D and H1299 cell lines) were plated onto 96-well plates at a density of 4, 000 cells/well overnight prior to the addition of 1 at different concentrations ranging from 0.01–100 μM for a further 72 h. 10 μL MTT reagent (5 mg/mL) was added to the wells and the cells were incubated for an additional 4 h before 100 μL of DMSO was added to the wells. The absorbance of each well was read on a SpectraMax M5 microplate reader (Molecular Devices) at the wavelength of 570 nm.

The next series relates to HeLa. The note with it: read-out: IC50 (MTT), HeLa; human cervix carcinoma, p53 wt, 72 h. As to the method:
as §2, §3

In a further series the test system is MD-MBA-231. The note with it: read-out: IC50 (MTT), MD-MBA-231; human breast carcinoma, p53 mut, 72 h. As to the method: as §2, §3
The subject of a further series is MD-MBA-468. As to conditions: read-out: IC50 (MTT), MD-MBA-468; human breast carcinoma, p53 mut, 72 h. On the procedure:
as §2, §3

The conditions of series [3]: 298 K. The text has this:
(1 picture or pasted object on this page, not shown here) […]

In series [4] the test system is p53-driven luciferase activity. The note with it: A375 cells carrying endogenous wt p53, 6 h.
Description: A375 cells were co-transfected with p53 luciferase reporter gene (Addgene) and Renilla luciferase (Rluc) control reporter vectors at the ratio of 10:1 for 6 h in a 6-well plate. After transfection, cells were cultivated for another 18 h in the complete DMEM medium. Cells were then plated in a 96-well plate overnight. Serial dilutions of 1 were then added to the wells and the plate was incubated for 6 h. Luciferase reporter activity was then measured according to instruction of a dual reporter assay system (Progema) as previous reported [50].

T1 sequence (Q00987 17-126): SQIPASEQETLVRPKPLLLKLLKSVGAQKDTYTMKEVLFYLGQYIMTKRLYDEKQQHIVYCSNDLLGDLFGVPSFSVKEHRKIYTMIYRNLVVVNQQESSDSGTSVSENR

For `CCc1ccc2[c](c1)[Ir-3]13([c]4cc(CC)ccc4-c4cccc[n+]41)([n+]1ccccc1-2)[n+]1ccc(Cl)c2ccc4c(Cl)cc[n+]3c4c21.F[P-](F)(F)(F)(F)F` [Compound 1, 4,7-dichloro-1, 10-phenanthrolinebis(2-(4-ethylphenyl)pyridine)iridium(III) hexafluorophosphate], the IC50 on p53/hDM2 interaction [1] (150 nM hDM2_17–126, 50 nM p53_15–31Flu, 30 min, room temperature, read-out: IC50 against the p53/hDM2 interaction as determined by a FA assay) is 16000 nM; in the series with A2780 it was 495 ± 32 nM; in the series with HeLa it was 480 ± 44.7 nM; in the series on MD-MBA-231 it was 835 ± 42.9 nM; in the series on MD-MBA-468 it was 1890 ± 23.3 nM. Further, the “effect on fluorescence anisotropy / p53/hDM2 interaction” value at p53/hDM2 interaction [1] (serial dilutions of compound, hDM2_17–126 with p53_15–31Flu) was “decreased significantly”. Besides, in the series with p53/hDM2 interaction [2], the “amount of precipitated hDM2 (pulled down with p53-Flag)” value was “decreased”. Besides, the “expression of GADD45α” value with GADD45α, PUMA, p21 is on record as “significantly increased”. Further, the “expression of PUMA” value with GADD45α, PUMA, p21 is listed as “significantly increased”. In the series with GADD45α, PUMA, p21, the “expression of p21” value is “induced”. Besides, the “DNA fragmentation (TUNEL)” value in the series with A375 cells is reported as “induce DNA fragmentation”. Besides, in the series with caspase-3/7, the caspase-3/7 activities result was “significantly activate”. Further, the “time stable in solution (UV-Vis)” value in series [3] (80% acetonitrile/20% Tris-HCl buffer, 20 μM) is on record as “at least 7 days”. Besides, the “time stable in solution (1H NMR)” value in [3] (90% [d6] DMSO/10% D2O, 5 mM) was “at least 7 days”. Further, in [4], the p53-dependent luciferase activity result was “increase”.
